# “And” between values parts separate entries of the source, which are not always exact repeats. Equal values may be shown once.
# Assays:
# [1] = system: Intracellular adenosine in rat heart, liver, lung and brain; assay: In vivo effect on adenosine levels in rat tissues
# Description: Hearts were removed from animals and flash frozen in liquid nitrogen with 10 s of death. Liver and lungs were removed en bloc and flash frozen with 30 s of death. Brain tissue was subsequently dissected.
# HT-29 SF cells [2] = assay: Reversal of DHEA effect on cell cycle; assay type: cell-based, human; settings: supplement with 25 μM DHEA
# HT-29 SF cells [3] = assay: DHEA effect on cell growth (Coulter counter); settings: 12.5-200 μM, 24-72 hours
# Method: Cell cultures, HT-29 SF cells, which represent a subline of HY-29 cells (ATCC, Rockville, Md.) and are adapted for growth in completely defined serum-free PC-1 medium (Ventrex, Portland, Me.), were obtained. Stock cultures were maintained in this medium at 37° C. (in a humidified atmosphere containing 5% CO2).
# HT-29 SF cells [4] = assay: DHEA effect on cell cycle distribution (flow cytometry); assay type: cell-based, human; settings: 25, 50 or 200 μM, 24-72 hours, time- and dose-dependent
# Method: Cultures were trypsinized following 0, 24, 48, or 74 hours and fixed and stained using a modification of a procedure of Bauer et al., Cancer Res. 46, 3173-3178 (1986). Briefly, cells were collected by centrifugation and resuspended in cold phosphate-buffered saline. Cells were fixed in 70% ethanol, washed, and resuspended in phosphate-buffered saline.
# After 24, 48, and 72 hours, cells were harvested, fixed in ethanol, and stained with propidium iodide, and the DNA content/cell was determined by flow cytometric analysis. The percentage of cells in G1, S, and G2M phases was calculated using the Cellfit cell cycle analysis program. S phase is marked by a quadrangle for clarity. Representative histograms from duplicate determinations are shown. The experiment was repeated three times.
# [5] = HPLC check of drug degradation during jet milling; assay type: physicochemical; settings: HPLC peak area vs unmilled standard, single- and double-pass
# Method: The chromatographic peak area for the HPLC assay of the unmilled drug standard solution (10 mg/ml) gave a value of 23,427. […] The chromatographic peak areas for vials A and B were 11,979 and 11,677, respectively.
# [6] = Solubility of DHEA-S as a function of NaCl and temperature; assay type: physicochemical; settings: for Equilibrium constant Ksp=[DHEA-S−][Na+]: slope of solubility vs reciprocal sodium concentration
# Description: Inhalation of pure water can produce a cough stimulus. […] The temperature effect is weaker at high NaCl concentrations.
# [7] = system: rat peritoneal mast cells; assay: Histamine secretion after stimulation with compound 48/80; assay type: cell-based
# Method: Freshly isolated rat peritoneal mast cells (2×10^5 cells) were pre-incubated for 5 min at 37° C. in a Balanced Salt Solution containing 150 mM NaCl ([…]), 2.7 mM KCl, 0.9 mM CaCl2, 4 mM Na2HPO4, 2.7 mM KH2PO4, 1.75 mg/ml BSA and 0.1 μg/ml compound 48/80. Thereafter, DHEAS or water (control) are added and the mixture is incubated for 2 min at 37° C.
# Following incubation, the mixture is cooled to 4° C. then centrifuged at 4500 rpm for 5 min The supernatant is collected and mixed for 30 min at 4° C. with 5% TCA (trichloroacetic acid) to cause protein precipitation. After centrifugation at 9500×g for 15 min, the supernatant is collected and mixed with 0.25 M HCl. Thereafter, the samples are mixed with 2M NaOH and 0.2% OPT (ortho-phtalaldehyde) and incubated for 30 min at 4° C. in darkness, after which time the reaction is stopped by addition of 0.5 M H2SO4.
smiles,measurement,setting,value
"Nc1nc(=O)c2c([nH]1)NCC(CNc1ccc(C(=O)N[C@@H](CCC(=O)O)C(=O)O)cc1)N2C=O (mixture of isomers) [Folinic Acid, Folinic acid]",Effect on steroid-mediated adenosine depletion,[1]; coadministration with DHEA or methyltestosterone,completely abrogated steroid-mediated adenosine depletion
same,Effect on adenosine levels,"[1]; rat, in vivo",increase in adenosine levels for all organs studied
"CC(C)CCC[C@@H](C)[C@H]1CC[C@H]2[C@@H]3CC=C4C[C@@H](O)CC[C@]4(C)[C@H]3CC[C@]12C [CH, cholesterol]",Prevention of DHEA-induced reduction of cells in S phase,HT-29 SF cells [2]; 48 hours,very little effect
same,Prevention of DHEA-induced reduction of cells in S phase,HT-29 SF cells [2]; 72 hours,no effect
"C[C@]12CC[C@H](O)CC1=CC[C@@H]1[C@@H]2CC[C@]2(C)C(=O)CC[C@@H]12 [DHEA, 3β-hydroxyandrost-5-en-17-one]",Effect on cell growth,HT-29 SF cells [3],time- and dose-dependent inhibition of growth
same,Effect on cell cycle,HT-29 SF cells [4],G1 block
"C[C@]12CC[C@H](OS(=O)(=O)[O-])CC1=CC[C@@H]1[C@@H]2CC[C@]2(C)C(=O)CC[C@@H]12.[Na+] [DHEA-S, sodium dehydroepiandrostenone sulfate]",Degradation of the drug during jet milling micronization,[5],no detectable degradation
same,Estimated DHEA-S concentration in solution,"[6]; 15° C., 20 mM Na+, Ksp 1316 mM^2, quadratic formula",27.5 mM and 10.7 mg/mL
same,Ksp at 15° C.,[6]; interpolated versus reciprocal of absolute temperature,~1316 mM^2
same,Equilibrium constant Ksp=[DHEA-S−][Na+],[6]; refrigerated (7-8° C.),665 mM2
same,Equilibrium constant Ksp=[DHEA-S−][Na+],[6]; room temperature (24-25° C.),2236 mM2
same,Solubility under the assay conditions,[7]; at 10^-4 M,highly limited
same,EC50,"[7]; compound 48/80 0.1 μg/ml, 2 min at 37° C., read-out: EC50, inhibition of histamine release",0.17 µM
"C[C@@](O)(CCO)CC(=O)O [MVA, mevalonic acid]",Prevention of DHEA-induced reduction of cells in S phase,HT-29 SF cells [2]; 48 hours,partially prevented
same,Prevention of DHEA-induced reduction of cells in S phase,HT-29 SF cells [2]; 72 hours,not after 72 hours
